Reference: US20240174980A1, “PROCESS FOR MANUFACTURE OF A COMPOSITION FOR THE TREATMENT OF OSTEOARTHRITIS IN A SUBJECT” (STEM CELLX EUROPE KFT, priority 2021, published 2024)

System: GADD45, CEBPb and MMP13 expression in differentiating canine MSCs
Experiment: Expression of hypertrophic chondrocyte markers (relative RNA levels) during chondrogenic differentiation
Type: cell-based
Settings: relative RNA levels at days 10 and 24 of chondrogenic differentiation
Protocol: (§1) 1B depicts the experiment in which we added 30 ng/ml kynurenine to the differentiating MSCs to examine its effect on the markers of hypertrophic chondrocytes. In the experiment, we measured the expression of the two main regulatory transcription factors of hypertrophic chondrocyte differentiation, factors GADD45 and CEBPb, and of their target, matrix metalloproteinase-13 (MMP13), by measuring their relative RNA levels on days 10 (early) and 24 (mature) of chondrogenic differentiation.
as §1, with “2B” for “1B”, “50” for “30”, “THBS1” for “kynurenine”
During the analysis, first we quantified the levels of KYNA produced in canine AD-MSCs derived from 8 independent donations by ELISA in passage 3 cultures. […]
In another analysis, we quantified the levels of THBS1 produced in the AD-MSCs derived from 8 independent donations by ELISA in passage 3 cultures. […]

Compound	Effect on hypertrophic chondrocyte phenotype (expression of GADD45, CEBPb and MMP13) (30 ng/ml KYNA added at day 7)	Effect on hypertrophic chondrocyte phenotype (expression of GADD45, CEBPb and MMP13) (50 ng/ml THBS1 added at day 7)
Nc1ccccc1C(=O)CC(N)C(=O)O (centres unmarked) [KYNA, kynurenine]	able to suppress the hypertrophic chondrocyte phenotype	–
THBS1: Thrombospondin 1, adhesive glycoprotein encoded by the THBS1 gene, added to differentiating MSCs at 50 ng/ml	–	sufficient to suppress the hypertrophic chondrocyte phenotype
